Source: patent publication EP2899280A1, “Process for the enzymatic production of oligo-/polyesters” (Ernst-Moritz-Arndt-Universität Greifswald, priority 2014, dated 2015)

Experiment: Autohydrolysis of ε-CL (pH-STAT titration)
Assay type: physicochemical
Conditions: Distilled water (pH 7.0), 30 °C, based on 100 mM ε-CL as 100 %
Description: All measurements were done with the 877 Titrino Plus from Metrohm (Filderstadt, Germany).
Using the pH-STAT, the autohydrolysis of ε-CL at different temperatures and pH values was determined. Furthermore, it was investigated whether CAL-A is able to hydrolyze ε-CL in an aqueous reaction system. The Bacillus subtilis esterase 2 (BS2) served as positive control in the hydrolysis of ε-caprolactone to 6-hydroxycaproic acid leading to a measureable pH change in the pH-STAT.
For the determination of autohydrolysis, 100 mM ε-CL (Sigma-Aldrich, St- Louis, United States; 97 % purity) were dissolved in 20 ml Tris-HCl buffer (20 mM, pH 7.5) or 20 ml distilled water. The measurement was carried out at 25°C and 30°C over 15 min. For titration, 0.1 N NaOH was used to maintain the pH value constant.

## O=C1CCCCCO1 [ε-CL, ε-caprolactone]
  Conversion [%] (autohydrolysis): 1.075 ± 0,00090%
